Where “and” joins values, the source holds several entries; their conditions need not be identical. Identical values can stand only once. Like-named read-outs stand apart in the source and are kept apart here.
Columns and labels:
[1] = biological target: T1, LTA4-h (Homo sapiens, UniProt P09960); assay: peptidase (aminopeptidase) assay; type: biochemical
T1 sequence (P09960 1-611): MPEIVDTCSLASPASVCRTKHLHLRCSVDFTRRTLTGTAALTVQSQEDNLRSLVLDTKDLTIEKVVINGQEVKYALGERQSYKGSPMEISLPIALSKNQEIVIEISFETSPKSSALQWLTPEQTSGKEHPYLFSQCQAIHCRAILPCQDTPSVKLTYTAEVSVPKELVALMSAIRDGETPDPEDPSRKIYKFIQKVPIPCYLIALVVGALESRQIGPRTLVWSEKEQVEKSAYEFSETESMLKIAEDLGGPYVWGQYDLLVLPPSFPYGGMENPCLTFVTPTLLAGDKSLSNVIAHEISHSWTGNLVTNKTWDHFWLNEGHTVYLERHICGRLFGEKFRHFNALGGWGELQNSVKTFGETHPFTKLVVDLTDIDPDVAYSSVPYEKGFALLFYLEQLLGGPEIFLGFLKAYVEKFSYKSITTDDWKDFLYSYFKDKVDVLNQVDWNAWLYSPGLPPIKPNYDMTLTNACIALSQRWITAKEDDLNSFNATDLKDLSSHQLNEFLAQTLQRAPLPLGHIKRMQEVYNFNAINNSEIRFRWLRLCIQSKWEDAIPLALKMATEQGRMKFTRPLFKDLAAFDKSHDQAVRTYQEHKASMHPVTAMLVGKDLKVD
Excerpt: Since LTA4-h hydrolase is grouped with the M1 family of zinc metalloproteases (see, Rudberg, P. C. et al., J. Biol. Chem. 2002, Vol. 277, page 1398-1404), the compounds of the invention can be tested in the standard hydrolase and peptidase assay to determine the compounds' kinetic constants for binding to LTA4-h hydrolase and for inhibiting LTB4 synthesis (see Askonas, L. J., et al., The Journal of Pharmacology and Experimental Therapeutics 2002, 300(2): 577-582; Penning, T. D., J. Med. Chem. 2000, 43(4): 721-735; Kull, F. et al., The Journal of Biological Chemistry 1999, 274 (49): 34683-34690, the contents of which are expressly incorporated by reference herein).
(§1) The whole blood and aminopeptidase assays were performed as described in Penning et al., J. Med. Chem. 2000, 43, 721-735, and Rudberg et al., J. Biol. Chem. Vol. 279, No. 26, Issue of June 25, pp. 27376-27382, 2004, the contents of each of which are expressly incorporated by reference herein. The hydrolase assay was performed as described in U.S. Pat. No. 7,737,145, the contents of which are expressly incorporated herein.

[2] = biological target: T2, LTA4-h hydrolase (Homo sapiens, UniProt P09960); assay: whole blood assay (WBA); type: cell-based
T2 construct: whole blood assay using human, mouse, rat or dog whole blood; from tissue; host or cells: whole blood
T2 sequence (P09960 1-611): T1 sequence (P09960 1-611)
Experimental: Compounds of the invention can also be tested for their ability as inhibitors of LTA4-h hydrolase in the whole blood assay using human, mouse, rat or dog whole blood (see Penning, T. D. et al., J. Med. Chem. (2000), 43(4): 721-735 for a description of a human whole blood assay and a mouse whole blood assay, the contents of which are expressly incorporated herein).
as §1

[3] = biological target: T1, LTA4-h; assay: hydrolase assay; type: biochemical
Excerpt: The compounds of the invention can be tested for their ability to inhibit LTA4-h by various known assays and by assays described herein. For example, the compounds can be tested for their ability to inhibit LTA4-h activity by assaying the compounds in the hydrolase-homogeneous time resolved fluorescence assay. This assay, which is a two-step assay, measures the hydrolysis of […] by analyzing the amount of LTB4 produced. The first step involves the enzymatic conversion of […] and the second step involves the quantification of the […] formed with a homogeneous time resolved fluorescence assay.
as §1

[4] = system: ionophore-induced LTB4 production; settings: oral administration; mouse blood ex vivo; cited from earlier work
[5] = system: cotton top tamarins; settings: eight weeks of treatment; cited from earlier work
[6] = system: ionophore-induced LTB4 production; settings: oral administration; rat peritoneum in vivo; cited from earlier work

Molecule | IC50 [1] | IC50 [2] | IC50 [3] | also measured
N#Cc1c(Nc2ccc(Oc3ccccc3)cc2)nn2cc(N)cnc12 [Compound 1] | 280 nM | > 8.8 µM | 1500 nM | –
N#Cc1c(Nc2ccc(Oc3ccccc3)cc2)nn2cc(C(=O)c3cc(Cl)cc(Cl)c3O)cnc12 [Compound 6] | 960 nM | – | – | inhibition at 3 µM [3]: 15%
2-(4-phenoxyphenylamino)-3-cyano-6-(2-nitro-3-hydroxycarboxyphenyl)pyrazolo[1,5-a]pyrimidine [Compound 9] | 3.3 nM | – | – | Hydrolase % inhibition ([3]; at 1 uM): 20% inhibition at 1 uM
CN(CCCOc1ccc(Cc2ccccc2)cc1)CCC(=O)O.Cl [SC57461] | – | – | – | inhibition of ionophore-induced LTB4 production [4]: caused inhibition; colitis symptoms [5]: significantly improved colitis symptoms; inhibition of ionophore-induced LTB4 production [6]: caused inhibition
N#Cc1c(Nc2ccc(Oc3ccccc3)cc2)nn2cc(C(=O)c3ccccc3O)cnc12 [Compound 5] | 90 nM and 20 nM | 4.9 µM and 3 µM | 1400 nM and 490 nM | –

Continued, in another order:

IC50 [1] | IC50 [2] | IC50 [3] | Molecule | also measured
84 nM | – | – | N#Cc1c(Nc2ccc(Oc3ccccc3)cc2)nn2cc(-c3ccc(C(=O)O)cn3)cnc12 [Compound 12] | –
30 nM and 10 nM | 4.6 µM and 3 µM | 1600 nM and 2900 nM | N#Cc1c(Nc2ccc(Oc3ccccc3)cc2)nn2cc(C(=O)c3cc(Cl)ccc3O)cnc12 [Compound 7] | –
1700 nM | – | – | N#Cc1c(Nc2ccc(Oc3ccccc3)cc2)nn2cc(C(=O)c3cc([N+](=O)[O-])ccc3O)cnc12 [Compound 4] | inhibition at 3 µM [3]: 48%
260 nM | > 7.2 µM | 3700 nM | CS(=O)(=O)c1ccc(-c2cnc3c(C#N)c(Nc4ccc(Oc5ccccc5)cc4)nn3c2)c([N+](=O)[O-])c1 [Compound 2] | –
270 nM | – | – | N#Cc1c(Nc2ccc(Oc3ccccc3)cc2)nn2cc(-c3cccc(C(=O)O)n3)cnc12 [Compound 11] | –
120 nM | – | – | N#Cc1c(Nc2ccc(Oc3ccccc3)cc2)nn2cc(-c3ccc(C(=O)O)cc3[N+](=O)[O-])cnc12 [Compound 10] | inhibition at 1 µM ([3]; at 1 uM): 20%
430 nM | > 10 µM | – | N#Cc1c(Nc2ccc(Oc3ccccc3)cc2)nn2cc(-c3cc(C(=O)O)ccc3[N+](=O)[O-])cnc12 [Compound 3] | inhibition at 3 µM [3]: 39%

From patent publication US10399986B2, “Inhibitors of leukotriene A4 hydrolase” (CELTAXSYS, INC., priority 2013, dated 2019)
